What all share (format): functional
The test system of one assay is Staphylococcus aureus. Kind of assay: Antibacterial activity against Staphylococcus aureus ATCC 25923 by microbroth dilution method. For orientation: In broth dilution the organism is exposed to a series of concentrations in liquid medium.
The subject of a further assay is Enterococcus faecalis. Kind of assay: Antibacterial activity against Enterococcus faecalis ATCC 29212 by microbroth dilution method.
Another assay relates to Bacillus subtilis. Kind of assay: Antibacterial activity against Bacillus subtilis ATCC 6633 by microbroth dilution method.
In assay [1] the test system is Mycobacterium tuberculosis. Description: Antibacterial activity against Mycobacterium tuberculosis H37Rv by microbroth dilution method.
Assay [2] deals with Mycolicibacterium smegmatis. Description: Antibacterial activity against Mycobacterium smegmatis MC2 155 by microbroth dilution method. Conditions: str. MC2 155.
A further assay deals with Pseudomonas aeruginosa. Description: Antibacterial activity against Pseudomonas aeruginosa ATCC 27853 by microbroth dilution method.
In another assay the test system is Morganella morganii. Description: Antibacterial activity against multidrug-resistant Morganella morganii 07-09 by microbroth dilution method.
The test system of a further assay is Escherichia coli. Kind of assay: Antibacterial activity against Escherichia coli ATCC 25922 by microbroth dilution method.
Another assay relates to Candida albicans. Description: Antifungal activity against Candida albicans ATCC 10231 by microbroth dilution method.

Each structure is given as a SMILES string. Converted amounts (≈) assume the structure as drawn.

What is called MIC is the smallest concentration in the dilution series that meets the test's criterion for growth inhibition. Turning to `NCCC[C@H](N)CC(=O)NCCC[C@H](N)CC(=O)N[C@@H]1[C@H](O)[C@@H](O)[C@@H](COC(N)=O)O[C@H]1/N=C1\N[C@@H]2[C@H](O)CNC(=O)[C@H]2N1`, the MIC in the assay with Staphylococcus aureus is over 256 µg/mL; with Enterococcus faecalis, over 256 µg/mL; against Bacillus subtilis, 16 µg/mL (≈ 25.4 µM); in [1], 16 µg/mL (≈ 25.4 µM); in [2], 64 µg/mL (≈ 101 µM); with Pseudomonas aeruginosa, over 256 µg/mL. For the same compound, the values for the MIC with Morganella morganii, against Escherichia coli and in the assay with Candida albicans were over 256 µg/mL, over 256 µg/mL and 32 µg/mL (≈ 50.7 µM), respectively.
For `CC(=O)N[C@@H](CCCNC(=O)C[C@@H](N)CCCN)CC(=O)N[C@@H]1[C@H](O)[C@@H](O)[C@@H](COC(N)=O)O[C@H]1/N=C1\N[C@@H]2[C@H](O)CNC(=O)[C@H]2N1`, the minimal inhibitory concentration (MIC) was over 256 µg/mL in the assay on Staphylococcus aureus; over 256 µg/mL in the assay with Enterococcus faecalis; 128 µg/mL (≈ 190 µM) against Bacillus subtilis; over 256 µg/mL in [1]; over 256 µg/mL in [2]; over 256 µg/mL against Pseudomonas aeruginosa. The MIC in the assay with Morganella morganii, in the assay on Escherichia coli and in the assay on Candida albicans was over 256 µg/mL throughout.
Consider `CC(=O)N[C@@H](CCCNC(=O)C[C@@H](N)CCCNC(=O)C[C@@H](N)CCCN)CC(=O)N[C@@H]1[C@H](O)[C@@H](O)[C@@H](COC(N)=O)O[C@H]1/N=C1\N[C@@H]2[C@H](O)CNC(=O)[C@H]2N1`, for which the MIC against Staphylococcus aureus was over 256 µg/mL; with Enterococcus faecalis, over 256 µg/mL; with Bacillus subtilis, 64 µg/mL (≈ 79.9 µM); in [1] it was over 256 µg/mL; in assay [2] it was over 256 µg/mL; in the assay with Pseudomonas aeruginosa, over 256 µg/mL. For the same compound, the minimum inhibitory concentration (MIC) was over 256 µg/mL against Morganella morganii, 64 µg/mL (≈ 79.9 µM) against Escherichia coli and over 256 µg/mL in the assay with Candida albicans.
Turning to `CC(=O)N[C@@H](CCCNC(=O)C[C@@H](N)CCCNC(=O)C[C@@H](N)CCCN)CC(=O)N[C@@H]1[C@H](O)[C@@H](O)[C@@H](COC(N)=O)O[C@H]1/N=C1\N[C@H]([C@H](O)CN)[C@@H](C(=O)O)N1`, the MIC (against Staphylococcus aureus; against Enterococcus faecalis; in the assay on Bacillus subtilis; in assay [1]; in assay [2]; in the assay on Pseudomonas aeruginosa) was over 256 µg/mL in each case. The MIC against Morganella morganii, against Escherichia coli and against Candida albicans was over 256 µg/mL each time.
With `CC(=O)N[C@@H](CCCNC(=O)C[C@@H](N)CCCNC(=O)C[C@@H](N)CCCN)CC(=O)N[C@@H]1[C@H](O)[C@@H](OC(N)=O)[C@@H](CO)O[C@H]1/N=C1\N[C@H]([C@H](O)CN)[C@@H](C(=O)O)N1`, the MIC was over 256 µg/mL in the assay on Staphylococcus aureus; over 256 µg/mL in the assay on Enterococcus faecalis; 64 µg/mL (≈ 78.2 µM) in the assay with Bacillus subtilis; over 256 µg/mL in [1]; over 256 µg/mL in assay [2]; over 256 µg/mL in the assay with Pseudomonas aeruginosa. The minimum inhibitory concentration (MIC) was over 256 µg/mL against Morganella morganii, 64 µg/mL (≈ 78.2 µM) against Escherichia coli and over 256 µg/mL against Candida albicans.
`NNC(=O)c1ccncc1` [ISONIAZID] yielded a minimum inhibitory concentration (MIC) in assay [1] of 0.0625 µg/mL (≈ 0.456 µM).
Regarding `C[C@H]1COc2c(N3CCN(C)CC3)c(F)cc3c(=O)c(C(=O)O)cn1c23.C[C@H]1COc2c(N3CCN(C)CC3)c(F)cc3c(=O)c(C(=O)O)cn1c23.O` [LEVOFLOXACIN], the minimum inhibitory concentration (MIC) is 0.12 µg/mL in the assay on Staphylococcus aureus; 0.5 µg/mL with Enterococcus faecalis; 0.12 µg/mL with Bacillus subtilis; 0.5 µg/mL in assay [1]; 1 µg/mL in [2]; 0.25 µg/mL with Pseudomonas aeruginosa. Also, the MIC against Morganella morganii was 16 µg/mL; in the assay on Candida albicans, over 256 µg/mL.
With `CO[C@H]1/C=C/O[C@@]2(C)Oc3c(C)c(O)c4c(O)c(c(/C=N/N5CCN(C)CC5)c(O)c4c3C2=O)NC(=O)/C(C)=C\C=C\[C@H](C)[C@H](O)[C@@H](C)[C@@H](O)[C@@H](C)[C@H](OC(C)=O)[C@@H]1C` [RIFAMPIN], in assay [1], 0.0625 µg/mL (≈ 0.0759 µM) was the least that counted as inhibitory (MIC).
Turning to `NCCC[C@H](N)CC(=O)NCCC[C@H](N)CC(=O)N[C@@H]1[C@H](O)[C@@H](OC(N)=O)[C@@H](CO)O[C@H]1NC1=N[C@@H]2C(=O)NC[C@@H](O)[C@H]2N1` [STREPTOTHRICIN E], the MIC was found to be 4 µg/mL (≈ 6.34 µM) against Staphylococcus aureus; 64 µg/mL (≈ 101 µM) in the assay with Enterococcus faecalis; 1 µg/mL (≈ 1.59 µM) against Bacillus subtilis; 1 µg/mL (≈ 1.59 µM) in assay [1]; 4 µg/mL (≈ 6.34 µM) in assay [2]; 64 µg/mL (≈ 101 µM) against Pseudomonas aeruginosa. The MIC was 4 µg/mL (≈ 6.34 µM) with Morganella morganii, 16 µg/mL (≈ 25.4 µM) in the assay with Escherichia coli and 1 µg/mL (≈ 1.59 µM) against Candida albicans.
